Experimental data published in the NIST ThermoML archive (doi:10.1016/j.tca.2013.06.031).

Experiments:
[1] = wn = mass fraction of the nth substance listed; settings: 101 kPa, Liquid, w1 = 0.009; for viscosity: Capillary tube (Ostwald / Ubbelohde) method; for mass density: Vibrating tube method
[2] = 101 kPa, Liquid, Capillary tube (Ostwald / Ubbelohde) method
[3] = mn = molality of the nth substance listed, in mol/kg; settings: 101 kPa, Liquid, m2 = 0; for viscosity: Capillary tube (Ostwald / Ubbelohde) method; for mass density: Vibrating tube method

[Cl-].[Na+] [sodium chloride] + O
[1]
Settings | mass density [kg/m3] | viscosity [mPa·s]
278.15 K | 1006.09 | 1.53
283.15 K | 1005.64 | 1.321
288.15 K | 1005.07 | 1.154
293.15 K | 1004.14 | 1.015
298.15 K | 1002.96 | 0.9068
303.15 K | 1001.47 | 0.8105
308.15 K | 999.75 | 0.7363
313.15 K | 997.82 | 0.6641

O [water]
[2]
Settings | viscosity [mPa·s]
278.15 K | 1.521
283.15 K | 1.307
288.15 K | 1.135
293.15 K | 1.002
298.15 K | 0.8903
303.15 K | 0.7977
308.15 K | 0.719
313.15 K | 0.6532

O [water] + CO/N=C(\C(=O)N[C@@H]1C(=O)N2C(C(=O)[O-])=C(CSc3nc(C)c(CC(=O)[O-])s3)CS[C@H]12)c1csc(N)n1.[Na+].[Na+]
[3]
Settings | mass density [kg/m3] | viscosity [mPa·s]
278.15 K | 999.96 | 1.521
283.15 K | 999.7 | 1.307
288.15 K | – | 1.135
293.15 K | – | 1.002
298.15 K | – | 0.8903
303.15 K | – | 0.7977
308.15 K | – | 0.719
313.15 K | – | 0.6532
